{"source": "patent US6602521B1", "about": "“Multiplex drug delivery system suitable for oral administration” (Impax Pharmaceuticals, Inc., priority 1998, dated 2003)", "origin": "cited, not measured here", "data": [{"smiles": "O=[N+]([O-])O[C@@H]1CO[C@H]2[C@@H]1OC[C@@H]2O", "note": "[Isosorbide mononitrate, 1,4:3,6-dihydro-D-glucitrol 5-nitrate]", "values": [{"measurement": "absorption from the gastrointestinal tract", "setting": "gastrointestinal tract", "result": "rapidly and completely absorbed"}, {"measurement": "rate of clearance", "setting": "healthy young adults vs patients with various degrees of renal, hepatic, or cardiac dysfunction", "result": "the same"}, {"measurement": "first pass metabolism in the liver", "setting": "in humans", "result": "not subject to first pass metabolism"}, {"measurement": "overall elimination half-life", "setting": "in vivo", "result": "about 6 hours"}]}]}
